Results from US10093623B2, “Cyclic amides as MetAP-2 inhibitors” (MERCK PATENT GmbH, priority 2012, dated 2018).

Each compound was assayed against MetAP-2 (Homo sapiens, UniProt P50579) (assay: MetAP-2 activity measurement (coupled enzymatic reactions, Met-Arg-Ser substrate, dianisidine detection at 450 nm)). Settings: Inhibition of MetAP-2; read-out: IC50 enzyme.
Sequence of MetAP-2 (P50579 whole entry, species assumed): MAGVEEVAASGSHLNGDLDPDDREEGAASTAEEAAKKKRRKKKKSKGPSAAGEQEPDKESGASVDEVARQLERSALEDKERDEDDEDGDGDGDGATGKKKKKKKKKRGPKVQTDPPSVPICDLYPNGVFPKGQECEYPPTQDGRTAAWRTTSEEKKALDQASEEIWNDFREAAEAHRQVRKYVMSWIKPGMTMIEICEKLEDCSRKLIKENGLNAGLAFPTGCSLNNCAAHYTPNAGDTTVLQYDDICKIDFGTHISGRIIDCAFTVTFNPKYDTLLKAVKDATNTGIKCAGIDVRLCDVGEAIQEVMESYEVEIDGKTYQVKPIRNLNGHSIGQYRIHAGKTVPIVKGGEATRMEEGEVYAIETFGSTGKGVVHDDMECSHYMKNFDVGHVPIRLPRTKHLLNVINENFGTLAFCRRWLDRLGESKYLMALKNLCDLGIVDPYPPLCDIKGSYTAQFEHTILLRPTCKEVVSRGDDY
Type: biochemical
Experimental: MetAP-2 Activity Measurement
The MetAP-2 activity is determined by coupling enzymatic reactions. The tripeptide Met-Arg-Ser (MAS) is employed as substrate. The methionine liberated is firstly converted into Metox and H2O2 by L-aminooxidase (AAO). In the second step, the peroxidase (POD) with the aid of the H2O2 catalyses the oxidation of the leukodye dianisidine to dianisidineox, the increase of which is detected photometrically at 450 nm.
MetAP-2 activity can be recorded continuously as kinetics. The reaction scheme illustrates that one mol of dianisidineox is formed per mol of methionene. The MetAP-2 enzyme activity can therefore be calculated directly as A absorption per time unit. Qualification of the MetAP-2 activity (mol of Met/time unit) is possible with the aid of the dianisidineox extinction coefficient.
The change in extinction per time unit is depicted graphically and a slope calculation is carried out in the visually linear region of the reaction.
For O=C(NCc1cc(F)cc(Cl)c1)[C@@]1(O)CCCN(Cc2ccccc2)C1=O [A81, N-(3-Chloro-5-fluorobenzyl)-(S)-1-benzyl-3-hydroxy-2-oxopiperidine-3-carboxamide], the IC50 was 10 to 1000 nM. With O=C(NCc1cc(F)cc(Cl)c1)[C@@]1(O)CCN(CCc2c[nH]c3ccccc23)C1=O [B37, N-(3-Chloro-5-fluorobenzyl)-(S)-3-hydroxy-1-[2-(1H-indol-3-yl)-ethyl]-2-oxopyrrolidine-3-carboxamide] the IC50 was 10 to 1000 nM. O=C(NCc1cc(F)cc(Cl)c1)C1(O)CCN(C[C@H]2CC[C@@H](C(=O)O)CC2)C1=O (some centres unmarked) [A274, 4-[3-(3-Chloro-5-fluorobenzylcarbamoyl)-3-hydroxy-2-oxopyrrolidin-1-yl-methyl]cyclohexanecarboxylic acid] gave an IC50 of 1000 to 10000 nM. Compound O=C(NCc1cc(F)cc(Cl)c1)C1(O)CCN(c2ccc(Cl)c(C(F)(F)F)c2)C1=O (centres unmarked) [B27, N-(3-Chloro-5-fluorobenzyl)-1-(4-Chloro-3-trifluoromethyl-phenyl)-3-hydroxy-2-oxo-pyrrolidine-3-carboxamide] has an IC50 of 10 to 1000 nM. With CC(C)NC(=O)c1cc2cc(N3CC[C@@](O)(C(=O)NCc4cc(F)cc(Cl)c4)C3=O)ccc2[nH]1 [B89, N-Isopropyl-5-[(R)-3-(3-chloro-5-fluorobenzylcarbamoyl)-3-hydroxy-2-oxopyrrolidin-1-yl]-1H-indole-2-carboxamide] the IC50 was > 10000 nM. O=C(NCc1cccc(F)c1Cl)C1(O)CCN(c2ccc3[nH]ccc3c2)C1=O (centres unmarked) [A206, N-(2-Chloro-3-fluorobenzyl)-3-hydroxy-1-(1H-indol-5-yl)-2-oxo-pyrrolidine-3-carboxamide] showed an IC50 of 10 to 1000 nM. CC(=O)Nc1ccc(N2CC[C@](O)(C(=O)NCc3cccc(F)c3Cl)C2=O)cn1 [B9, N-(2-Chloro-3-fluorobenzyl)-(S)-1-(6-acetylaminopyridin-3-yl)-3-hydroxy-2-oxopyrrolidine-3-carboxamide] gave an IC50 of 10 to 1000 nM. For Cc1cc2cc(N3CC[C@@](O)(C(=O)NCc4cc(F)cc(Cl)c4)C3=O)cnc2[nH]1 [B61, N-(3-Chloro-5-fluorobenzyl)-(R)-3-hydroxy-1-(2-methyl-1H-pyrrolo[2,3-b]pyridin-5-yl)-2-oxo-pyrrolidine-3-carboxamide], the IC50 was 1000 to 10000 nM. With O=C1N(CC2CCCCC2)CCC[C@@]1(O)CNCc1cc(F)cc(Cl)c1 [B64, (R)-3-[(3-Chloro-5-fluorobenzylamino)methyl]-1-cyclohexylmethyl-3-hydroxy-piperidin-2-one] the IC50 was > 10000 nM. In the case of O=C(NCc1cc(F)cc(Cl)c1)C1(O)CCN(C[C@H]2CC[C@H](C(=O)O)CC2)C1=O (some centres unmarked) [A273, 4-[3-(3-Chloro-5-fluorobenzylcarbamoyl)-3-hydroxy-2-oxopyrrolidin-1-yl-methyl]cyclohexanecarboxylic acid], the IC50 is reported as 1000 to 10000 nM. In the case of O=C(NCc1cc(F)cc(Cl)c1)C1(O)CCN(c2cnn(-c3ccccc3)c2)C1=O (centres unmarked) [A169, N-(3-Chloro-5-fluorobenzyl)-3-hydroxy-2-oxo-1-(1-phenyl-1H-pyrazol-4-yl)pyrrolidine-3-carboxamide], the IC50 is reported as 10 to 1000 nM. With Cc1nc2cc(N3CCC(O)(C(=O)NCc4cc(F)cc(Cl)c4)C3=O)cnc2[nH]1 (centres unmarked) [B33, N-(3-Chloro-5-fluorobenzyl)-3-hydroxy-1-(2-methyl-3H-imidazo[4,5-b]pyridin-6-yl)-2-oxopyrrolidine-3-carboxamide] the IC50 was 10 to 1000 nM. With CC(=O)N1C[C@@H]2[C@H](C1)[C@H]2N1CCC(O)(C(=O)NCc2cc(F)cc(Cl)c2)C1=O (stereo partly drawn) [A231, N-(3-Chloro-5-fluorobenzyl)-1-((1S,5R,6S)-3-acetyl-3-aza-bicyclo[3.1.0]hex-6-yl)-3-hydroxy-2-oxopyrrolidine-3-carboxamide] the IC50 was 1000 to 10000 nM. O=C1CCc2cc(N3CC[C@](O)(C(=O)NCc4ccc(F)c(F)c4F)C3=O)ccc2N1 [A284, N-(2,3,4-Trifluorobenzyl)-(S)-3-hydroxy-2-oxo-1-(2-oxo-1,2,3,4-tetrahydroquinolin-6-yl)-pyrrolidine-3-carboxamide] showed an IC50 of 10 to 1000 nM. Cc1cc2cc(N3CC[C@](O)(C(=O)NCc4cc(F)cc(Cl)c4)C3=O)cnc2[nH]1 [B62, N-(3-Chloro-5-fluorobenzyl)-(S)-3-hydroxy-1-(2-methyl-1H-pyrrolo[2,3-b]pyridin-5-yl)-2-oxo-pyrrolidine-3-carboxamide] gave an IC50 of 10 to 1000 nM. In the case of O=C(NCc1cccc(F)c1)[C@]1(O)CCCN(CC2CCCCC2)C1=O [A263, N-(3-fluorobenzyl)-(R)-1-cyclohexylmethyl-3-hydroxy-2-oxopiperidine-3-carboxamide], the IC50 is reported as > 10000 nM. In the case of CC(C)(C)OC(=O)N1CCC(O)(C(=O)OCc2ccccc2)C1=O (centres unmarked) [B51, 3-Benzyl 1-tert-butyl 3-hydroxy-2-oxopyrrolidine-1,3-dicarboxylate], the IC50 is reported as > 10000 nM. For CC(C)(C)OC(=O)N1C[C@@H]2[C@H](C1)[C@H]2N1CCC(O)(C(=O)NCc2cc(F)cc(Cl)c2)C1=O (stereo partly drawn) [A228, tert-Butyl (1S,5R,6S)-6-[3-(3-chloro-5-fluorobenzyl-carbamoyl)-3-hydroxy-2-oxo-pyrrolidin-1-yl]-3-azabicyclo-[3.1.0]hexane-3-carboxylate], the IC50 was 1000 to 10000 nM. With CC1(C)CN(c2ccccc2)C(=O)[C@]1(O)C(=O)NCc1cc(F)cc(Cl)c1 [A109, N-(3-Chloro-5-fluorobenzyl)-(R)-3-hydroxy-4,4-dimethyl-2-oxo-1-phenylpyrrolidine-3-carboxamide] the IC50 was > 10000 nM. Compound O=C(NCc1cccc(F)c1)[C@@]1(O)CCCN(CC2CCCCC2)C1=O [A256, N-(3-fluorobenzyl)-(S)-1-cyclohexylmethyl-3-hydroxy-2-oxopiperidine-3-carboxamide] has an IC50 of 10 to 1000 nM. CC(=O)Nc1ccc(N2CCC(O)(C(=O)NCCc3ccccc3C(F)(F)F)C2=O)cn1 (centres unmarked) [A143, N-[2-(2-Trifluoromethylphenyl)-ethyl]-1-(6-acetylaminopyridin-3-yl)-3-hydroxy-2-oxopyrrolidine-3-carboxamide] was tested, and the IC50 was 10 to 1000 nM. O=C(c1cccc(N2CC[C@@](O)(C(=O)NCc3cc(F)cc(Cl)c3)C2=O)c1)N1CCOCC1 [A74, N-(3-Chloro-5-fluorobenzyl)-(R)-3-hydroxy-1-[3-(morpholine-4-carbonyl)phenyl]-2-oxopyrrolidine-3-carboxamide] was tested, and the IC50 was > 10000 nM. In the case of CN(c1cccc(N2CC[C@](O)(C(=O)NCc3cc(F)cc(Cl)c3)C2=O)c1)S(C)(=O)=O [A165, N-(3-Chloro-5-fluorobenzyl)-(S)-3-hydroxy-1-[3-(methane-sulfonylmethylamino)phenyl]-2-oxopyrrolidine-3-carboxamide], the IC50 is reported as 10 to 1000 nM. For NC(=O)c1cc(N2CCC(O)(C(=O)NCc3cc(F)cc(Cl)c3)C2=O)cc(C(F)(F)F)c1 (centres unmarked) [A204, N-(3-Chloro-5-fluorobenzyl)-1-(3-carbamoyl-5-trifluoromethyl-phenyl)-3-hydroxy-2-oxo-pyrrolidine-3-carboxamide], the IC50 was 1000 to 10000 nM. For CC(=O)Nc1ccc(N2CC[C@](O)(C(=O)NCCc3cc(F)cc(Cl)c3)C2=O)cn1 [A155, N-[2-(3-Chloro-5-fluorophenyl)-ethyl]-(S)-1-(6-acetylamino-pyridin-3-yl)-3-hydroxy-2-oxo-pyrrolidine-3-carboxamide], the IC50 was 10 to 1000 nM. Work on O=C(NCc1cc(F)cc(Cl)c1)C1(O)CCN(c2cnc3c(c2)OCCN3)C1=O (centres unmarked) [A118, N-(3-Chloro-5-fluorobenzyl)-1-(3,4-Dihydro-2H-pyrido[3,2-b]-1,4-oxazin-7-yl)-3-hydroxy-2-oxopyrrolidine-3-carboxamide] yielded an IC50 of 10 to 1000 nM. Compound O=C1CCc2cc(N3CC[C@](O)(C(=O)NCc4cccc(F)c4)C3=O)ccc2N1 [B56, N-(3-Fluorobenzyl)-(S)-3-hydroxy-2-oxo-1-(2-oxo-1,2,3,4-tetrahydroquinolin-6-yl)-pyrrolidine-3-carboxamide] has an IC50 of 10 to 1000 nM. Compound O=C1CCc2cc(N3CCC(O)(C(=O)NCc4cc(F)cc(Cl)c4)C3=O)c(F)cc2N1 (centres unmarked) [B109, N-(3-Chloro-5-fluorobenzyl)-1-(7-fluoro-2-oxo-1,2,3,4-tetrahydroquinolin-6-yl)-3-hydroxy-2-oxopyrrolidine-3-carboxamide] has an IC50 of 10 to 1000 nM. Work on O=C(NCc1cc(F)cc(Cl)c1)C1(O)CCN(CC2CCOCC2)C1=O (centres unmarked) [A220, N-(3-Chloro-5-fluorobenzyl)-3-hydroxy-2-oxo-1-(tetrahydro-pyran-4-ylmethyl)pyrrolidine-3-carboxamide] yielded an IC50 of 1000 to 10000 nM. CCOC(=O)C1CCCC(N2CCC(O)(C(=O)NCc3cc(F)cc(Cl)c3)C2=O)C1 (centres unmarked) [A202, Ethyl 3-[3-(3-chloro-5-fluorobenzylcarbamoyl)-3-hydroxy-2-oxopyrrolidin-1-yl]-cyclohexanecarboxylate] showed an IC50 of 1000 to 10000 nM. Compound O=C(NCc1cc(F)cc(Cl)c1)C1(O)CCN(C[C@H]2CCCO2)C1=O (stereo partly drawn) [A225, N-(3-Chloro-5-fluorobenzyl)-3-hydroxy-2-oxo-1-[(R)-1-(tetrahydrofuran-2-yl)methyl]-pyrrolidine-3-carboxamide] has an IC50 of 1000 to 10000 nM. CC1CCC(N2CCC(O)(C(=O)NCc3cc(F)cc(Cl)c3)C2=O)CC1 (centres unmarked) [A293, N-(3-Chloro-5-fluorobenzyl)-3-hydroxy-1-(4-methylcyclohexyl)-2-oxopyrrolidine-3-carboxamide] showed an IC50 of 10 to 1000 nM. Work on O=C(NCc1cc(F)cc(Cl)c1)[C@]1(O)CCN(c2ccc3[nH]c(=O)ccc3c2)C1=O [B41, N-(3-Chloro-5-fluorobenzyl)-(R)-3-hydroxy-2-oxo-1-(2-oxo-1,2-dihydroquinolin-6-yl)pyrrolidine-3-carboxamide] yielded an IC50 of 1000 to 10000 nM. In the case of NC(=O)[C@@]1(O)CCN(c2ccc3c(c2)CCC(=O)N3)C1=O [B103, (S)-3-Hydroxy-2-oxo-1-(2-oxo-1,2,3,4-tetrahydroquinolin-6-yl)-pyrrolidine-3-carboxamide], the IC50 is reported as > 10000 nM. N#CCn1cc(N2CC[C@@](O)(C(=O)NCc3cc(F)cc(Cl)c3)C2=O)cn1 [B117, N-(3-Chloro-5-fluorobenzyl)-(R)-1-(1-cyanomethyl-1H-pyrazol-4-yl)-3-hydroxy-2-oxopyrrolidine-3-carboxamide] was tested, and the IC50 was > 10000 nM.
